# Assay results from PMC3315157 (Biochemistry, 2012).
# Where “and” joins values, the source holds several entries; their conditions need not be identical. Identical values can stand only once. Like-named read-outs stand apart in the source and are kept apart here.
# Columns and labels:
# [1] = target: T1, Torpedo nAChR (Tetronarce californica, UniProt P02710+P02712+P02714+P02718); experiment: biochemical; type: binding; details: for reduction of agonist-enhanced [125I]SADU-3-72 photolabeling within αV8-20K: 130 μM bupropion (separate experiment) or TCP
# [2] = target: T1, Torpedo nAChR; experiment: [125I]-SADU-3-72 competition binding assay
# [3] = tested on: α1β1εδ (adult mouse muscle-type) nAChRs; details: read-out: IC50, impaired channel opening; binding to the resting nAChR; HEK-293 cells; cited from earlier work
# [4] = target: T1, Torpedo nAChR; type: cell-based
# [5] = resting state (+α-BgTx), tetracaine 130 μM, native nAChR-rich membranes, n=1
# [6] = desensitized state (Carb), TCP 130 μM, native nAChR-rich membranes, n=1
# T1 sequence (P02710 25-461): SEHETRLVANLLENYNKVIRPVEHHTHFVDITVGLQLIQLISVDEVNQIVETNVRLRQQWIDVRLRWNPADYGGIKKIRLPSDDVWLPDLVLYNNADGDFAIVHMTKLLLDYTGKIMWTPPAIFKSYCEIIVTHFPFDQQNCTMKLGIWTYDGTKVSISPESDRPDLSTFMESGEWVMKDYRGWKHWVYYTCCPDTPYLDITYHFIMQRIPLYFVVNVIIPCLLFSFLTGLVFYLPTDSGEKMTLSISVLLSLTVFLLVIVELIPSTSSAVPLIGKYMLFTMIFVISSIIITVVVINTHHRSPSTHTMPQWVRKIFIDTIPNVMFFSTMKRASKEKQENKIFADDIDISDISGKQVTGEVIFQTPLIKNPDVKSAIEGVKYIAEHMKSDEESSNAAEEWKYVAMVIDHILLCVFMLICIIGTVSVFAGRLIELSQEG
# T1 sequence (P02712 25-493): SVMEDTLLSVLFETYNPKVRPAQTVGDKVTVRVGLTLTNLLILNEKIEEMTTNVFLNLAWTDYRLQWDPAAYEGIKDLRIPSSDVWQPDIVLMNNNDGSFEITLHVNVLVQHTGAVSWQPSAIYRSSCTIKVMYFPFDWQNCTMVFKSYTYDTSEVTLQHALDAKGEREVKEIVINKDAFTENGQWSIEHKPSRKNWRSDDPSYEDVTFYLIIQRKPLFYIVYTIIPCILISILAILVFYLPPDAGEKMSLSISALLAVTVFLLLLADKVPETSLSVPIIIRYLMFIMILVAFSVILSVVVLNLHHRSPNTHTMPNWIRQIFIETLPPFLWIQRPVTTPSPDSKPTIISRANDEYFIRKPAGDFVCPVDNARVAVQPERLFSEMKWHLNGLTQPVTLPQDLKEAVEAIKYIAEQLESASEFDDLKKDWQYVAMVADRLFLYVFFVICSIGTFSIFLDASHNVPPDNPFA
# T1 sequence (P02714 18-506): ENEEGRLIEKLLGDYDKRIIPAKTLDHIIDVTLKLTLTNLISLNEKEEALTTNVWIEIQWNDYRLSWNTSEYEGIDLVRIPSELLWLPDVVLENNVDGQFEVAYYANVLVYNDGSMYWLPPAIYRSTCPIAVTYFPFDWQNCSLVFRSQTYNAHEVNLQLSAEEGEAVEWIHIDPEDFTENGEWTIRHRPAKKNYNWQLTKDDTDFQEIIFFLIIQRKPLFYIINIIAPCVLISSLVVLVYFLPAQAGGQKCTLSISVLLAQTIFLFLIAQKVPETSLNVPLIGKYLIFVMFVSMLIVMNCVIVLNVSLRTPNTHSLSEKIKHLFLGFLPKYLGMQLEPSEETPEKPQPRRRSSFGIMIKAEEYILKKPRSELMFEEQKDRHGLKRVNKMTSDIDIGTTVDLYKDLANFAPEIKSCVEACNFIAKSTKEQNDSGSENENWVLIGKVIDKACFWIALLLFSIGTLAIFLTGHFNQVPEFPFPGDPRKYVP
# T1 sequence (P02718 22-522): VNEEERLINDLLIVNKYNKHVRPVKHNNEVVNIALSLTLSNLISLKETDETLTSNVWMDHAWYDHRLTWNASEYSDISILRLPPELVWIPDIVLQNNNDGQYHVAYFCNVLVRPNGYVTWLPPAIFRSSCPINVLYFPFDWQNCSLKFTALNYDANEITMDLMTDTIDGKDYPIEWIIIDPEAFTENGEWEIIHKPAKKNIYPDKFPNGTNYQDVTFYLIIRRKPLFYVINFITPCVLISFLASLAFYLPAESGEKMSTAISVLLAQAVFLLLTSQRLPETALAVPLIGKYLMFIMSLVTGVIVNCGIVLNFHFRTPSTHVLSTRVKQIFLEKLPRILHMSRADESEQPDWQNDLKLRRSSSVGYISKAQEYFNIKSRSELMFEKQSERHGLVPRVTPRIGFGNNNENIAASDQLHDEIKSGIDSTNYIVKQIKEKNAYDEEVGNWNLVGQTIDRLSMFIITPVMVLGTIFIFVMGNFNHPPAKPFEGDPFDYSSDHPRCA
smiles,measurement,setting,value
CCCCNc1ccc(C(=O)OCCN(C)C)cc1 [tetracaine],inhibition at 130 µM,[1]; read-out: inhibition of [125I]SADU-3-72 labeling within αV8-20K fragment,49%
same,inhibition at 130 µM,[1]; read-out: inhibition of [125I]SADU-3-72 labeling within βV8-22/23K fragment,76%
same,inhibition at 130 µM,[1]; read-out: inhibition of [125I]SADU-3-72 labeling within γV8-24K fragment,79%
same,inhibition at 130 µM,[1]; read-out: inhibition of [125I]SADU-3-72 labeling within δV8-14K fragment,88%
same,reduction of [125I]SADU-3-72 photolabeling in α-subunit,[1]; [5],< 5%
same,reduction of [125I]SADU-3-72 photolabeling in β-subunit,[1]; [5],55%
same,reduction of [125I]SADU-3-72 photolabeling in γ-subunit,[1]; [5],51%
same,reduction of [125I]SADU-3-72 photolabeling in δ-subunit,[1]; [5],73%
same,inhibition of [125I]-SADU-3-72 photoincorporation within subunit fragments containing the M2 segments,"[1]; resting state, αV8-20, βV8-22, γV8-24 and δV8-14",50–90%
"CC(NC(C)(C)C)C(=O)c1ccc(N=[N+]=[N-])c(I)c1 (racemic) [SADU-3-72, (±)-2-(N-tert-butylamino)-3′-[^125I]-iodo-4′-azidopropiophenone]",IC50,"[2]; read-out: IC50, inhibition of [125I]SADU-3-72 binding, affinity-purified, lipid-reconstituted nAChR, absence of Carb (resting state)",2300 ± 700 nM
"c1csc(C2(N3CCCCC3)CCCCC2)c1 [TCP, 1-(1-(2-Thienyl)cyclohexyl) piperidine (tenocyclidine)]",effect on [125I]SADU-3-72 labeling of δLeu265 (M2-9),"[1]; desensitized state (400 μM Carb), 130 μM TCP, preparative photolabeling",eliminated
same,reduction of agonist-enhanced [125I]SADU-3-72 photolabeling within αV8-20K,[1]; desensitized state (Carb),not inhibited
same,effect on [125I]SADU-3-72 β subunit labeling,[1]; [6],unchanged
same,increase of [125I]SADU-3-72 photolabeling in α-subunit,[1]; [6],~ 15%
same,"effect on [125I]SADU-3-72 labeling in βV8-22/23K, γV8-24K and δV8-14K fragments","[1]; desensitized state (Carb), TCP (140 μM in Figure 5 legend)",further inhibited labeling
same,inhibition at 130 µM,[1]; read-out: inhibition of [125I]SADU-3-72 photolabeling in γ-subunit,~35%
same,inhibition at 130 µM,[1]; read-out: inhibition of [125I]SADU-3-72 photolabeling in δ-subunit,~35%
"CC(NC(C)(C)C)C(=O)c1cccc(Cl)c1 (racemic) [bupropion, (±)-2-(tert-butylamino)-1-(3-chlorophenyl) propan-1-one]",IC50,"[2]; IC50, inhibition of [125I]SADU-3-72 binding, native nAChR-rich membranes, desensitized state (400 μM Carb)",1200 nM and 1000 nM
same,fold higher affinity in the desensitized than in the resting state,[2]; from inhibition of [125I]SADU-3-72 binding / photoincorporation,three-fold
same,IC50,[3],400 nM
same,IC50,[4],340 nM and 300 nM
same,Hill coefficient nH of inhibition of ACh-induced currents,"[4]; co-applied with 50 μM ACh, n=7 oocytes",0.98 ± 0.14
same,IC50,"[1]; IC50, inhibition of δ subunit [125I]SADU-3-72 photolabeling, presence of Carb (desensitized state)",2100 nM and 2000 nM
same,reduction of agonist-enhanced [125I]SADU-3-72 photolabeling within αV8-20K,[1]; desensitized state (Carb),70%
"CC(=O)OCC[N+](C)(C)C [ACh, Acetylcholine]","Hill coefficient nH, ACh dose-response curve",[4]; n=1,1.5
